{
  "source": "ChEMBL document CHEMBL1201862",
  "about": "“PubChem BioAssay data set” (2004)",
  "experiment_in_all_cases": "NCI anticancer screen, dose series, 48 h",
  "key": {"LOX IMVI": {"test_system": "LOX IMVI"}, "EKVX": {"test_system": "EKVX"}, "SK-MEL-5": {"test_system": "SK-MEL-5"}, "NCI-H23": {"test_system": "NCI-H23"}, "SK-MEL-28": {"test_system": "SK-MEL-28"}, "NCI-H522": {"test_system": "NCI-H522"}, "HOP-62": {"test_system": "HOP-62"}, "OVCAR-4": {"test_system": "OVCAR-4"}, "OVCAR-8": {"test_system": "OVCAR-8"}, "U-251": {"test_system": "U-251"}, "K562": {"test_system": "K562"}, "MCF7": {"test_system": "MCF7"}, "MDA-MB-435": {"test_system": "MDA-MB-435"}, "HCT-15": {"test_system": "HCT-15"}, "SF-295": {"test_system": "SF-295"}, "SF-268": {"test_system": "SF-268"}, "NCI-H460": {"test_system": "NCI-H460"}, "SNB-19": {"test_system": "SNB-19"}, "DU-145": {"test_system": "DU-145"}, "MDA-N": {"test_system": "MDA-N"}},
  "note": "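Following 48 hours of exposure in 96-well plates, responses at five concentrations were used to interpolate endpoints linearly. GI50 = concentration required for 50% inhibition of growth.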 Activity calls are given as the source filed them. Cut-off read from the data, not from the text of the source: active = GI50 up to about 1.1 µM and inactive = higher.",
  "data": [
    {"smiles": "COc1cccc(N2C(=O)CSC2c2c[nH]c3ccccc23)c1", "note": "(stereo not given)", "values": [
      {"measurement": "GI50", "setting": "LOX IMVI", "result": "> 100 µM (inactive)"},
      {"measurement": "GI50", "setting": "EKVX", "result": "> 100 µM (inactive)"},
      {"measurement": "GI50", "setting": "SK-MEL-5", "result": "> 100 µM (inactive)"},
      {"measurement": "GI50", "setting": "NCI-H23", "result": "> 100 µM (inactive)"},
      {"measurement": "GI50", "setting": "SK-MEL-28", "result": "> 100 µM (inactive)"},
      {"measurement": "GI50", "setting": "NCI-H522", "result": "97.9 µM (inactive)"},
      {"measurement": "GI50", "setting": "HOP-62", "result": "> 100 µM (inactive)"},
      {"measurement": "GI50", "setting": "OVCAR-4", "result": "73.6 µM (inactive)"},
      {"measurement": "GI50", "setting": "OVCAR-8", "result": "> 100 µM (inactive)"},
      {"measurement": "GI50", "setting": "U-251", "result": "> 100 µM (inactive)"},
      {"measurement": "GI50", "setting": "K562", "result": "> 100 µM (inactive)"},
      {"measurement": "GI50", "setting": "MCF7", "result": "> 100 µM (inactive)"},
      {"measurement": "GI50", "setting": "MDA-MB-435", "result": "> 100 µM (inactive)"},
      {"measurement": "GI50", "setting": "HCT-15", "result": "> 100", "unit": "µM"},
      {"measurement": "GI50", "setting": "SF-295", "result": "> 100 µM (inactive)"},
      {"measurement": "GI50", "setting": "SF-268", "result": "> 100 µM (inactive)"},
      {"measurement": "GI50", "setting": "NCI-H460", "result": "> 100 µM (inactive)"},
      {"measurement": "GI50", "setting": "SNB-19", "result": "> 100 µM (inactive)"},
      {"measurement": "GI50", "setting": "DU-145", "result": "> 100 µM (inactive)"},
      {"measurement": "GI50", "setting": "MDA-N", "result": "> 100 µM (inactive)"}
    ]}
  ]
}
